Data taken from article PMC12281142, “A potent phenylalkylamine disrupts mycobacterial membrane bioenergetics and augments bactericidal activity of bedaquiline” (iScience, 2025).

Test system: M. bovis BCG
Format: cell-based, Mycobacterium bovis BCG
Details: 2x MIC90 (19 μg/mL)

SMILES: CCCCCCCCC(C#N)(CCCN(C)CCc1ccc(OC)c(OC)c1)c1ccc(OC)c(OC)c1 (stereo not shown) [PhA2]
- oxygen consumption rate: uptake was reduced to the basal level
